Consider twelve molecules from ChEMBL document CHEMBL6177923, “Novel rhodanine-thiazole hybrids as potential antidiabetic agents: a structure-based drug design approach” (RSC Med Chem, 2025).

Activity calls are given as the source filed them. No cut-off for these calls is given here.

For data set [1], the target named is Lysosomal alpha-glucosidase (Homo sapiens, UniProt P10253). The data set is described as follows: Inhibition of human lysosomal alpha-glucosidase preincubated for 10 mins followed by p-nitrophenyl-alpha-D glucopyranoside addition and measured after 30 mins by absorbance based analysis.
The next data set concerns HepG2. The data set is described as follows: Upregulation of PPAR-gamma expression in human HepG2 cells by RayBio PPAR-gamma TF activity assay. In kind it is functional, cell-based. The settings on record: dose 6.25-100 µM.
Another data set deals with L929. As to the kind of experiment: Cytotoxicity against mouse L929 cells by MTT assay. The class given is toxicity, cell-based. Background: Tetrazolium dyes change colour on reduction, which living cells bring about.

By IC50 is commonly meant the concentration needed to halve the response being measured. High values mean weaker potency, low ones greater potency. `O=C1NC(=S)S/C1=C\c1ccc(/C=N/Nc2nc(-c3ccc(Br)cc3)cs2)cc1` showed an IC50 in data set [1] of 32.2 µM. In addition, the values for the Activity entry in the data set on HepG2 and in the data set with L929 were “Dose-dependent-effect” and “Non-toxic”, respectively.
`O=C(O)CN1C(=O)/C(=C/c2ccc(/C=N/Nc3nc(-c4ccc(Br)cc4)cs3)cc2)SC1=S`: the IC50 in data set [1] was determined as 24.2 µM. In the data set with L929, the Activity entry is reported as “Non-toxic”.
In the same order, the values of `O=C(O)CN1C(=O)/C(=C/c2ccc(/C=N/Nc3nc(-c4ccccc4)cs3)cc2)SC1=S` are 29.1 µM and “Non-toxic”.
`O=C(O)CN1C(=O)/C(=C/c2ccc(/C=N/Nc3nc(-c4ccc(Cl)cc4)cs3)cc2)SC1=S` had an IC50 in data set [1] of 62.1 µM. The Activity entry in the data set on L929 was “Non-toxic”.
Taken in the same sequence, the figures for `O=C(O)CN1C(=O)/C(=C/c2ccc(/C=N/Nc3nc(-c4ccc(F)cc4)cs3)cc2)SC1=S` were 52 µM and “Non-toxic”.
Molecule `O=C1NC(=S)S/C1=C\c1ccc(/C=N/Nc2nc(-c3ccc(F)cc3)cs2)cc1` had an IC50 in data set [1] of 148 µM. In addition, in the data set on L929, the Activity result is reported as “Non-toxic”.
As to `Cc1ccc(-c2csc(N/N=C/c3ccc(/C=C4\SC(=S)NC4=O)cc3)n2)cc1`, the IC50 in data set [1] was 106 µM. Also, the Activity result in the data set on L929 is on record as “Non-toxic”.
Taken in the same sequence, the figures for `COc1ccc(-c2csc(N/N=C/c3ccc(/C=C4\SC(=S)N(CC(=O)O)C4=O)cc3)n2)cc1` were 63.2 µM and “Non-toxic”.
As for `Cc1ccc(-c2csc(N/N=C/c3ccc(/C=C4\SC(=S)N(CC(=O)O)C4=O)cc3)n2)cc1`, the inhibition result in data set [1] (time 40.0 min) is “inactive”. In addition, the Activity result in the data set on L929 is “Non-toxic”.
Regarding `COc1ccc(-c2csc(N/N=C/c3ccc(/C=C4\SC(=S)NC4=O)cc3)n2)cc1`, the IC50 in data set [1] is 46 µM. The Activity entry in the data set on L929 is recorded as “Non-toxic”.
In data set [1], `O=C1NC(=S)S/C1=C\c1ccc(/C=N/Nc2nc(-c3ccccc3)cs2)cc1` gave an IC50 of 55.2 µM. In the data set with L929, the Activity result is “Non-toxic”.
In the case of `O=C1NC(=S)S/C1=C\c1ccc(/C=N/Nc2nc(-c3ccc(Cl)cc3)cs2)cc1`, the IC50 in data set [1] was 33.2 µM. Besides, the values for the Activity entry with HepG2 and with L929 were “Dose-dependent-effect” and “Non-toxic”, respectively.
